Measured values taken from publication PMC5063977 (The Journal of Biological Chemistry, 2016).

Experiments:
Format in all cases: cell-based
[1] = biological target: T1, RAMP1-CLR (CGRP receptor) (Homo sapiens, UniProt O60894+Q16602); assay: S. cerevisiae growth assay, GPA1/Gαq chimera, RAMP1 + CLR; details: percentage of yeast strain MMY11 (lacking GPA1); 24-h; mean ± S.E., n = 7
T1 construct: FLAG; expressed in transfected cells; host or cells: HEK-293 or HEK-293S cells, transient transfection, 1:1 RAMP:CLR
T1 sequence (Q16602 23-461): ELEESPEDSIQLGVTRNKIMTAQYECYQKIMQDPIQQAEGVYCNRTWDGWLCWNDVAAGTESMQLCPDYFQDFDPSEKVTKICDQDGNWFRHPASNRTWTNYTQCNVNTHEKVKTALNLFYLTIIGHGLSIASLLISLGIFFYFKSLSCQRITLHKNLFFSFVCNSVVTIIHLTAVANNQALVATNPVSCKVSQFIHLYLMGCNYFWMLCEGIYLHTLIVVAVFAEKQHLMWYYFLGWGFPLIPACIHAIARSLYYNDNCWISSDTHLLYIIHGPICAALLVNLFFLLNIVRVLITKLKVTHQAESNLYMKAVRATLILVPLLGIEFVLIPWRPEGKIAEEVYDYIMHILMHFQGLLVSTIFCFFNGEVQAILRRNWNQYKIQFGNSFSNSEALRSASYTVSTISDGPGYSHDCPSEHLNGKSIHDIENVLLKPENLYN
T1 sequence (O60894 27-148): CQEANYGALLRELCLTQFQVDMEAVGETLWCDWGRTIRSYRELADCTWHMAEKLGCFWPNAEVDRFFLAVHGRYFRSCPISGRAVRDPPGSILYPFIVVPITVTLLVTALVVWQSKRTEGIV
Description: (§1) FIGURE 7. […] Reporter gene activity was determined following 24-h stimulation. All data are expressed as percentage of the maximum response observed in yeast strain MMY11 and are means ± S.E. of n individual data sets. D, Bar chart showing the efficacy of each ligand for each RAMP-CLR combination at the Gαq chimera determined via application of the operational model of receptor agonism (Ref. [34] and Table 1). Data were determined as statistically different from the cognate ligand for each receptor (***, p < 0.001; ****, p < 0.0001) using one-way ANOVA with Bonferroni's post-test. E, signaling bias plots were calculated as ΔΔ(τ/Ka) values on a logarithmic scale for each ligand and for each chimera G protein for the three individual RAMP-CLR complexes.
(§2) General yeast procedures were performed as described previously ([22], [24]). […] Receptor signaling was measured using the yeast growth assay as described previously ([24]). […] A fluorescein signal was detected as an increase in fluorescence (excitation wavelength = 485 nm, emission wavelength = 535 nm) as a measure of growth. Different concentrations of ligand (0.01 nM–100 μM) were assayed using 96-well plates, and fluorescence was detected using a Tecan Infinite M200 microplate reader (Tecan Ultra Evolution, Reading, UK) or a Mithras LB 940 microplate reader (Berthold Technologies, Harpenden, UK) for 20 h. […]

[2] = biological target: T2, RAMP3-CLR (AM2 receptor) (Homo sapiens, UniProt O60896+Q16602); assay: S. cerevisiae growth assay, GPA1/Gαq chimera, RAMP3 + CLR; details: percentage of yeast strain MMY11 (lacking GPA1); 24-h; mean ± S.E., n = 6
T2 construct: FLAG; expressed in transfected cells; host or cells: HEK-293 or HEK-293S cells, transient transfection, 1:1 RAMP:CLR
T2 sequence (Q16602 23-461): as the sequence (Q16602 23-461) above
T2 sequence (O60896 24-148): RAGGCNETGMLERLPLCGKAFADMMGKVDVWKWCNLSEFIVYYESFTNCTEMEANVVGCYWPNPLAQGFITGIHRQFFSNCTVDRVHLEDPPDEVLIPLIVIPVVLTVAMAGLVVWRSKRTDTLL
Description: as §1, §2

[3] = biological target: T1, RAMP1-CLR (CGRP receptor); assay: cAMP accumulation, HEK-293 cells, RAMP1 + CLR; details: mean ± S.E.
Description: HEK-293 cells were transfected with FuGENE 6 (Roche Applied Science) in accordance with the manufacturer's instructions using a 1:3 (w:v) DNA:FuGENE ratio and a 1:1 ratio of RAMP to CLR. […] The transfected cell lines were grown for 24–48 h prior to assaying.
The transfected HEK-293 cells were washed in PBS, resuspended in stimulation buffer (PBS containing 0.1% BSA and 0.5 mM IBMX), and seeded at 2000 cells/well in 384-well white Optiplates. Ligands were added in the range of 1 pM to 1 mM, and cAMP accumulation was measured after 30 min of stimulation using a LANCE® cAMP detection kit (PerkinElmer Life Sciences). […] Plates were read using a Mithras LB 940 multimode microplate reader (Berthold Technologies). […] Values were converted to concentration using a cAMP standard curve performed in parallel.
Data analysis for cAMP assays was performed in GraphPad Prism 6.0f (San Diego, CA). Data were fitted to obtain concentration-response curves using either the three-parameter logistic equation (for pEC50 values) or the operational model for partial agonism ([34]) to obtain values of efficacy (log τ) and the equilibrium dissociation constant (log Ka). These values were then used to quantify signaling bias as change in log (τ/Ka) relative to the natural cognate ligand for the respective receptor ([41]). […] Statistical differences were analyzed using one-way ANOVA or Student's t test as appropriate with post hoc Bonferroni's or Dunnett's multiple comparisons, and p < 0.05 was considered significant. […] For RT-PCR, normalization to the internal standard GAPDH was performed to reduce variance and enable a comparison between different cell lines. To quantitate the ligand-dependent response in the yeast system, a strain lacking GPA1 (MMY11), grown in rich medium, was used as a standard ([72]). As GPA1 is not present in this strain, the Gβγ subunits are unregulated and free to signal, allowing us to determine the maximal response of our system. […] For the mammalian cell-based assays, data analysis was carried out as for the yeast curves. […]

Emax [1]: 14.1 ± 1.2%
Emax [2]: 25.6 ± 2%
Emax ([3]; HEK293, PTX treated (200 ng/ml, 16 h), percentage of maximal cAMP with 100 μM forskolin in presence of PTX, n = 6 (Table 3)): 72.2 ± 1.7%
Emax ([3]; HEK293, percentage of maximal cAMP with 100 μM forskolin, HEK-293, 30 min, n = 11 (Table 2)): 45.2 ± 3.7%
Emax ([3]; HEK293, untreated, percentage of maximal cAMP with 100 μM forskolin in presence of PTX, n = 9 (Table 3)): 48.1 ± 2.5%
Structure (SMILES): CC[C@H](C)[C@H](NC(=O)[C@H](CCC(N)=O)NC(=O)[C@H](Cc1c[nH]cn1)NC(=O)[C@H](C)NC(=O)[C@H](CC(C)C)NC(=O)[C@H](CCCCN)NC(=O)[C@H](CCC(N)=O)NC(=O)[C@@H](NC(=O)[C@@H](NC(=O)[C@@H]1CSSC[C@H](NC(=O)CNC(=O)[C@H](Cc2ccccc2)NC(=O)[C@H](CO)NC(=O)[C@H](CCCNC(=N)N)NC(=O)[C@H](CC(C)C)NC(=O)CNC(=O)[C@H](CCC(N)=O)NC(=O)[C@H](Cc2ccccc2)NC(=O)[C@H](CC(N)=O)NC(=O)[C@H](CC(N)=O)NC(=O)[C@H](CCSC)NC(=O)[C@H](CO)NC(=O)[C@H](CCC(N)=O)NC(=O)[C@H](CCCNC(=N)N)NC(=O)[C@@H](N)Cc2ccc(O)cc2)C(=O)N[C@@H](CCCNC(=N)N)C(=O)N[C@@H](Cc2ccccc2)C(=O)NCC(=O)N[C@@H]([C@@H](C)O)C(=O)N1)[C@@H](C)O)C(C)C)C(=O)N[C@@H](Cc1ccc(O)cc1)C(=O)N[C@@H](CCC(N)=O)C(=O)N[C@@H](Cc1ccccc1)C(=O)N[C@H](C(=O)N[C@@H](CC(=O)O)C(=O)N[C@@H](CCCCN)C(=O)N[C@@H](CC(=O)O)C(=O)N[C@@H](CCCCN)C(=O)N[C@@H](CC(=O)O)C(=O)N[C@@H](CC(N)=O)C(=O)N[C@H](C(=O)N[C@@H](C)C(=O)N1CCC[C@H]1C(=O)N[C@@H](CCCNC(=N)N)C(=O)N[C@@H](CO)C(=O)N[C@@H](CCCCN)C(=O)N[C@H](C(=O)N[C@@H](CO)C(=O)N1CCC[C@H]1C(=O)N[C@@H](CCC(N)=O)C(=O)NCC(=O)N[C@@H](Cc1ccc(O)cc1)C(N)=O)[C@@H](C)CC)C(C)C)[C@@H](C)O [AM, adrenomedullin]
